Activity coefficient data for 34 compounds are collected here from the NIST ThermoML archive (doi:10.1016/j.tca.2012.02.005).

Numbers after ± are expanded uncertainties.

A short description of the data set: activity coefficient (dimensionless); of the first substance listed, at infinite dilution; xn = mol fraction of the nth substance listed. As to conditions: 298.15 K; 101 kPa; Liquid; Chromatography; x1 = 0.
Regarding `CCCCN` [1-butanamine] + CO, the activity coefficient came to 0.46 ± 0.07.

On to `CCCCCCN` [1-hexanamine] + CO, for which the activity coefficient was 13.7 ± 2.3.

For `CCCCCCN` [1-hexanamine] + c1ccccc1, the activity coefficient stood at 16.2 ± 3.1.

`Cc1cccc(C)n1` [2,6-dimethylpyridine] + CO: the activity coefficient was 0.94 ± 0.07.

Consider `CCC(C)N` (centres undefined) [2-butanamine] + CO, for which the activity coefficient stood at 0.75 ± 0.1.

`CCC(C)N` (centres undefined) [2-butanamine] + c1ccccc1: the activity coefficient was 1.15 ± 0.17.

Consider `CC(C)(C)N` [2-methyl-2-propanamine] + CO, for which the activity coefficient was 0.25 ± 0.05.

Regarding `CC(C)(C)N` [2-methyl-2-propanamine] + c1ccccc1, the activity coefficient is 1.32 ± 0.21.

In the case of `Cc1ccccn1` [2-methylpyridine] + CO, the activity coefficient stood at 0.75 ± 0.07.

For `Cc1cccnc1` [3-methylpyridine] + CO, the activity coefficient was 0.82 ± 0.07.

Turning to `Cc1cccnc1` [3-methylpyridine] + c1ccccc1, the activity coefficient was 0.96 ± 0.12.

As for `Cc1ccncc1` [4-methylpyridine] + CO, the activity coefficient turned out to be 1 ± 0.12.

As for `NC1CCCCC1` [cyclohexylamine] + CO, the activity coefficient was 4.81 ± 0.47.

For `NC1CCCCC1` [cyclohexylamine] + c1ccccc1, the activity coefficient stood at 6.43 ± 1.

Consider `CCNCC` [diethylamine] + CO, for which the activity coefficient came to 0.33 ± 0.05.

Turning to `CCCNCCC` [dipropylamine] + CO, the activity coefficient amounted to 0.91 ± 0.12.

As for `CCCNCCC` [dipropylamine] + c1ccccc1, the activity coefficient amounted to 1.48 ± 0.15.

As for `CO` [methanol] + C1CCNCC1, the activity coefficient turned out to be 0.43 ± 0.03.

Consider `CO` [methanol] + CC(C)(C)N, for which the activity coefficient worked out at 0.29 ± 0.05.

For `CO` [methanol] + CCC(C)N, the activity coefficient was determined as 0.38 ± 0.05.

As for `CO` [methanol] + CCCCCCN, the activity coefficient was determined as 0.38 ± 0.05.

As to `CO` [methanol] + CCCCN, the activity coefficient was 0.35 ± 0.07.

Regarding `CO` [methanol] + CCCNCCC, the activity coefficient is 0.69 ± 0.05.

As for `CO` [methanol] + CCNCC, the activity coefficient amounted to 0.51 ± 0.03.

Turning to `CO` [methanol] + Cc1cccc(C)n1, the activity coefficient worked out at 0.61 ± 0.1.

On to `CO` [methanol] + Cc1ccccn1, for which the activity coefficient stood at 0.79 ± 0.1.

Consider `CO` [methanol] + Cc1cccnc1, for which the activity coefficient was determined as 0.94 ± 0.12.

As for `CO` [methanol] + Cc1ccncc1, the activity coefficient stood at 0.68 ± 0.1.

In the case of `CO` [methanol] + NC1CCCCC1, the activity coefficient is 0.33 ± 0.03.

Consider `c1ccncc1` [pyridine] + CO, for which the activity coefficient came to 1.2 ± 0.19.

For `CCN(CC)CC` [triethylamine] + c1ccccc1, the activity coefficient worked out at 1.28 ± 0.1.

For `CCCN(CCC)CCC` [tripropylamine] + CCCCCCCCCCCCCCCC, the activity coefficient came to 1.01.

As for `CCCN(CCC)CCC` [tripropylamine] + CO, the activity coefficient amounted to 8.79 ± 1.6.

On to `CCCN(CCC)CCC` [tripropylamine] + c1ccccc1, for which the activity coefficient was 2.79 ± 0.62.
